Measurements as given in patent US5707998A, “Nitrogen-containing fused-heterocycle compounds” (Eisai Co., Ltd., priority 1993, dated 1998).
Where a name gives a salt, the structure may show the parent alone.

Target: T1, cGMP-PDE prepared from porcine aorta (Sus scrofa, UniProt A0A287B475)
T1 construct: Porcine aorta was cut into small pieces; from tissue; host or cells: porcine aorta, 100,000 x g supernatant, DEAE-Toyopearl 650S fraction
Assay: Inhibitory Activity Against cGMP-PDE Prepared from Porcine Aorta
Format: biochemical
Conditions: CaM-independent cGMP-PDE fraction; 1 μM cGMP substrate; 1 mM EGTA; DMSO 4% or below
Protocol: Inhibitory Activity Against cGMP-PDE Prepared from Porcine Aorta The enzymatic activity of cGMP-PDE prepared from porcine aorta was determined by the method of Thompson et al. This determination was conducted in the presence of 1 mM EGTA by the use of 1 μM cGMP as the substrate. The compound of the present invention was added to the reaction system in a state dissolved in DMSO to determine its inhibitory activity. The final DMSO concentration of the reaction system was adjusted to 4% or below. The above cGMP-PDE was prepared as follows: Porcine aorta was cut into small pieces, followed by the addition of 10 times (by volume) as much buffer A [comprising Tris/HCl (20 mM), magnesium acetate (2 mM), dithiothreitol (1 mM), EDTA (5 mM), aprotinin (1400TIU/l),leupeptin (10 mg/l), benzamidine (1 mM) and PMSF (0.2 mM) and having a pH of 7.5]. The resulting mixture was homogenated and centrifuged at 100,000×g for one hour. The obtained supernatant was adsorbed on a column packed with DEAE-Toyopearl 650S (Tosoh, Tokyo, Japan). The resulting column was washed with buffer B [comprising Tris/HCl (50 mM), EGTA (0.1 mM), magnesium acetate (2 mM), dithiothreitol (1 mM) and PMSF (0.2 mM) and having a pH of 7.5] and thereafter subjected to gradient elution with 0.05 to 0.4M sodium chloride to give a CaM-independent cGMP-PDE fraction. The compounds of the present invention were examined for cGMP-PDE inhibitory activity by the above method and the results are given in Table 1.

Q: `CCOC(=O)C1CCN(c2nc(NCc3ccc4c(c3)OCO4)c3cc([N+](=O)[O-])ccc3n2)CC1` [Example 8, 2-(4-Ethoxycarbonylpiperidino)-4-(3,4-methylenedioxybenzyl)amino-6-dimethylnitroquinazoline] was tested. Which IC50 did it give?
A: 3.5 nM

Q: With `c1nc(NCc2ccc3c(c2)OCO3)c2cc(-n3cncn3)ccc2n1` [Example 15, 4-(3,4-Methylenedioxybenzyl)amino-6-(1,2,4-triazol-1-yl)quinazoline] as the molecule, how does the IC50 read?
A: 360 nM

Q: How did the IC50 turn out when `CN(C)c1ccc2nc(Cl)nc(NCc3ccc4c(c3)OCO4)c2c1` [Example 2, 2-Chloro-4-(3,4-methylenedioxybenzyl)amino-6-dimethylaminoquinazoline] was run?
A: 120 nM

Q: For `Clc1nc(NCc2ccc3c(c2)OCO3)c2cc(-n3cccn3)ccc2n1` [Example 1, 2-Chloro-4-(3,4-methylenedioxybenzyl)amino-6-(pyrazol-1-yl)quinazoline], which IC50 is on record?
A: 9.9 nM

Q: For `CCOC(=O)C1CCN(c2nc(NCc3ccc4c(c3)OCO4)c3cc(-n4cccn4)ccc3n2)CC1` [Example 6, 2-(4-Ethoxycarbonylpiperidino)-4-(3,4-methylenedioxybenzyl)amino-6-(pyrazol-1-yl)quinazoline hydrochloride], which IC50 is on record?
A: 8.09 nM

Q: With `O=[N+]([O-])c1ccc2nc(Cl)nc(NCc3ccc4c(c3)OCO4)c2c1` [Example 3, 2-Chloro-4-(3,4-methylenedioxybenzyl)amino-6-nitroquinazoline] as the molecule, how does the IC50 read?
A: 5.27 nM

Q: Which IC50 does the source give for `Clc1nc(NCc2ccc3c(c2)OCO3)c2cc(N3CCCCC3)ccc2n1` [Example 4, 2-Chloro-4-(3,4-methylenedioxybenzyl)amino-6-piperidinoquinazoline] here?
A: 1220 nM

Q: How did the IC50 turn out when `CCOC(=O)C1CCN(c2nc(NCc3ccc4c(c3)OCO4)c3cc(N(C)C)ccc3n2)CC1` [Example 7, 2-(4-Ethoxycarbonylpiperidino)-4-(3,4-methylenedioxybenzyl)amino-6-dimethylaminoquinazoline] was run?
A: 148 nM

Q: `O=C(O)C1CCN(c2nc(NCc3ccc4c(c3)OCO4)c3cc([N+](=O)[O-])ccc3n2)CC1` [Example 11, 2-(4-Carboxypiperidino)-4-(3,4-methylenedioxybenzyl)amino-6-nitroquinazolin] was tested. Which IC50 did it give?
A: 0.76 nM

Q: How did the IC50 turn out when `CCOC(=O)C1CCN(c2nc(NCc3ccc4c(c3)OCO4)c3cc(N)ccc3n2)CC1` [Example 12, 2-(4-Ethoxycarbonylpiperidino)-4-(3,4-methylenedioxybenzyl)amino-6-aminoquinazoline dihydrochloride] was run?
A: 1130 nM

Q: How did the IC50 turn out when `Clc1nc(NCc2ccc3c(c2)OCO3)c2cc(-n3ccnc3Cl)ccc2n1` [Example 5, 2-Chloro-4-(3,4-methylenedioxybenzyl)amino-6-(2-chloroimidazol-1-yl)quinazoline] was run?
A: 33.4 nM

Q: With `c1cn(-c2ccc3ncnc(NCc4ccc5c(c4)OCO5)c3c2)cn1` [Example 14, 4-(3,4-Methylenedioxybenzyl)amino-6-(imidazol-1-yl)quinazoline] as the molecule, how does the IC50 read?
A: 720 nM

Q: `O=C(O)C1CCN(c2nc(NCc3ccc4c(c3)OCO4)c3cc(-n4cccn4)ccc3n2)CC1` [Example 9, 2-(4-Carboxypiperidino)-4-(3,4-methylenedioxybenzyl)amino-6-(pyrazol-1-yl)quinazoline] was tested. Which IC50 did it give?
A: 1.48 nM

Q: `COc1ccc(CNc2ncnc3ccc(-n4cnc(C)c4)cc23)cc1Cl` [Example 17, 4-(3-Chloro-4-methoxybenzyl)amino-6-(4-methylimidazol-1-yl)quinazoline] was tested. Which IC50 did it give?
A: 403 nM

Q: `O=C(O)C1CCN(c2nc(NCc3ccc4c(c3)OCO4)c3cc(-c4nnn[nH]4)ccc3n2)CC1` [Example 13] was tested. Which IC50 did it give?
A: 7.29 nM

Q: `CN(C)c1ccc2nc(N3CCC(C(=O)O)CC3)nc(NCc3ccc4c(c3)OCO4)c2c1` [Example 10, 2-(4-Carboxypiperidino)-4-(3,4-methylenedioxybenzyl)amino-6-dimethylaminoquinazoline] was tested. Which IC50 did it give?
A: 18.7 nM
